Data from patent US20040087571A1, “Methods of using CCR1 antagonists as immunomodulatory agents” (Pfizer Inc, priority 2002, published 2004).

Assay: Solubility
Format: physicochemical

solubility [mg/mL] | Structure (SMILES)
> 250 | CC(C)(O)CC[C@H](C[C@H](O)[C@H](Cc1cccs1)NC(=O)c1cnc2ccccc2n1)C(N)=O [Example 313, Quinoxaline-2-carboxylic Acid (4(r)-carbamoyl-2(s),7-dihydroxy-7-methyl-1(s)-thiophen-2-ylmethyl-octyl)-amide]

Assay: not given

melting point [°C] | Structure (SMILES)
187 to 188 | CC1CCC(O)([C@H](C[C@H](O)[C@H](Cc2ccccc2)NC(=O)c2cnc3ccccc3n2)C(N)=O)C1 (stereo partly drawn) [Example 282, Quinoxaline-2-carboxylic acid [1(S)-benzyl-4(S)-carbamoyl-2(S)-hydroxy-4-(1-hydroxy-3-methyl-cyclopentyl)-butyl]-amide]
250 to 252 | NC(=O)[C@@H](C[C@H](O)[C@H](Cc1ccccc1)NC(=O)c1cnc2ccccc2n1)C1(O)CCC(C(F)(F)F)CC1 (stereo partly drawn) [Example 308, Quinoxaline-2-carboxylic acid [1(S)-benzyl-4(S)-carbamoyl-2(S)-hydroxy-4-(1-hydroxy-4-trifluoromethyl-cyclohexyl)-butyl]-amide]
190 to 192 | O=C(N[C@@H](Cc1ccccc1)[C@@H](O)C[C@@H](Cc1ccccc1)C(=O)NO)c1cnc2ccccc2n1 [Example 276, Quinoxaline-2-carboxylic acid (1(S)-benzyl-2(S)-hydroxy-4(R)-hydroxycarbamoyl-5-phenyl-pentyl)-amide]
234 to 236 | CC1CC(C)CC(O)([C@H](C[C@H](O)[C@H](Cc2ccccc2)NC(=O)c2cnc3ccccc3n2)C(N)=O)C1 (stereo partly drawn) [Example 288, Quinoxaline-2-carboxylic acid [1(S)-benzyl-4(S)-carbamoyl-2(S)-hydroxy-4-(1-hydroxy-3,5-dimethyl-cyclohexyl)-butyl]-amide]
268 to 269 | NC(=O)[C@@H](C[C@H](O)[C@H](Cc1ccccc1)NC(=O)c1cnc2ccccc2n1)C1(O)C2CCCC1CCC2 (stereo partly drawn) [Example 296, Quinoxaline-2-carboxylic acid [1(S)-benzyl-4(S)-carbamoyl-2(S)-hydroxy-4-(9-hydroxy-bicyclo[3.3.1]non-9-yl)-butyl]-amide]
147 to 149 | CC(C)(F)CC[C@H](C[C@H](O)[C@H](Cc1ccccc1)NC(=O)c1cnc2ccccc2n1)C(=O)NN [Example 312, Quinoxaline-2-carboxylic acid (1(S)-benzyl-7-fluoro-4(R)-hydrazinocarbonyl-2(S)-hydroxyl-7-methyl-octyl)-amide]
182 to 186 | NC(=O)[C@H](Cc1ccccc1)C[C@H](O)[C@H](Cc1ccccc1)NC(=O)c1cnc2c(c1)CCC2 [Example 286, 6,7-Dihydro-5H-[1]pyrindine-3-carboxylic acid (1(S)-benzyl-4(R)-carbamoyl-2(S)-hydroxy-5-phenyl-pentyl)-amide]
195 to 198 | CC1CC([C@H](C[C@H](O)[C@H](Cc2ccccc2)NC(=O)c2cnc3ccccc3n2)C(N)=O)CC(C)O1 (stereo partly drawn) [Example 244, Quinoxaline-2-carboxylic acid [1(S)-benzyl-4(S)-carbamoyl-4-(2,6-dimethyl-tetrahydro-pyran-4-yl)-2(S)-hydroxy-butyl]-amide]
130 to 131 | CC(C)(O)CC[C@H](C[C@H](O)[C@H](Cc1ccccc1F)NC(=O)c1cnc2ccccc2n1)C(=O)NO [Example 320, Quinoxaline-2-carboxylic acid [1(S)-(2-fluoro-benzyl)-2(S),7-dihydroxy-4(R)-hydroxycarbamoyl-7-methyl-octyl]-amide]
118 to 119 | O=C(N[C@@H](Cc1ccccc1)[C@@H](O)C[C@H](C(=O)NO)C1(O)CCCCCC1)c1cnc2ccccc2n1 [Example 291, Quinoxaline-2-carboxylic acid [1(S)-benzyl-2(S)-hydroxy-4(S)-hydroxycarbamoyl-4-(1-hydroxy-cycloheptyl)-butyl]-amide]
206 to 207 | NC(=O)[C@@H](C[C@H](O)[C@H](Cc1ccccc1)NC(=O)c1cnc2ccccc2n1)C1(O)C2CC3CC(C2)CC1C3 (stereo partly drawn) [Example 295, Quinoxaline-2-carboxylic acid [1(S)-benzyl-4(S)-carbamoyl-2(S)-hydroxy-4-(2-hydroxy-adamantan-2-yl)-butyl]-amide]

More lines, now with the values behind:

Structure (SMILES) | melting point [°C]
CC(C)(F)CC[C@H](C[C@H](O)[C@H](Cc1ccc(Cl)c(Cl)c1)NC(=O)c1cnc2ccccc2n1)C(N)=O [Example 155, Quinoxaline-2-carboxylic acid [4(R)-carbamoyl-1(S)-(3,4-dichloro-benzyl)-7-fluoro-2(S)-hydroxy-7-methyl-octyl]-amide] | 206 to 207
CC(C)CC[C@H](C[C@H](O)[C@H](Cc1cscn1)NC(=O)c1cnc2ccccc2n1)C(N)=O [Example 178, Quinoxaline-2-carboxylic acid (4(R)-carbamoyl-2(S)-hydroxy-7-methyl-1(S)-thiazol-4-ylmethyl-octyl)-amide] | 195 to 196
CC(C)(F)CC[C@H](C[C@H](O)[C@H](Cc1ccccc1)NC(=O)c1cnc2ccccc2n1)C(=O)NCc1ccccn1 [Example 211, Quinoxaline-2-carboxylic acid {1(S)-benzyl-7-fluoro-2(S)-hydroxy-7-methyl-4(R)-[(pyridin-2-ylmethyl)-carbamoyl]-octyl}-amide] | 138 to 140
CNC(=O)[C@H](CC(C)C)C[C@H](O)[C@H](Cc1ccc(F)cc1)NC(=O)c1cnc2ccccc2c1 [Example 89, Quinoline-3-carboxylic acid [1(S)-(4-fluoro-benzyl)-2(S)-hydroxy-6-methyl-4(R)-methylcarbamoyl-heptyl]-amide] | 184 to 186
CC(C)(F)CC[C@H](C[C@H](O)[C@H](Cc1ccccc1)NC(=O)c1cnc2ccccc2n1)C(=O)NCCc1ccccn1 [Example 205, Quinoxaline-2-carboxylic acid [1(S)-benzyl-7-fluoro-2(S)-hydroxy-7-methyl-4(R)-(2-pyridin-2-yl-ethylcarbamoyl)-octyl]-amide] | 155 to 156
COc1ccccc1CNC(=O)[C@H](CCC(C)(C)F)C[C@H](O)[C@H](Cc1ccccc1)NC(=O)c1cnc2ccccc2n1 [Example 227, Quinoxaline-2-carboxylic acid [1(S)-benzyl-7-fluoro-2(S)-hydroxy-4(R)-(2-methoxy-benzylcarbamoyl)-7-methyl-octyl]-amide] | 135
CC(C)(F)CC[C@H](C[C@H](O)[C@H](Cc1ccccc1)NC(=O)c1cnc2ccccc2n1)C(=O)NCCc1ccc(S(N)(=O)=O)cc1 [Example 216, Quinoxaline-2-carboxylic acid {1(S)-benzyl-7-fluoro-2(S)-hydroxy-7-methyl-4(R)-[2-(4-sulfamoyl-phenyl)-ethylcarbamoyl]-octyl}-amide] | 207 to 210
CNC(=O)[C@H](CC1CCC(F)(F)CC1)C[C@H](O)[C@H](Cc1ccccc1)NC(=O)c1cnc2ccccc2n1 [Example 132, Quinoxaline-2-carboxylic acid [1(S)-benzyl-5-(4,4-difluoro-cyclohexyl)-2(S)-hydroxy-4(R)-methylcarbamoyl-pentyl]-amide] | 170 to 172
CNC(=O)[C@H](CC(C)C)C[C@H](O)[C@H](Cc1ccc(OCc2ccccc2)cc1)NC(=O)c1cnc2ccccc2n1 [Example 39, Quinoxaline-2-carboxylic acid [1(S)-(4-benzyloxy-benzyl)-2(S)-hydroxy-6-methyl-4(R)-methylcarbamoyl-heptyl]-amide] | 196 to 197
CC(C)CC[C@H](C[C@H](O)[C@H](Cc1ccccc1F)NC(=O)c1cnc2ccccc2n1)C(N)=O [Example 175, Quinoxaline-2-carboxylic acid [4(R)-carbamoyl-1(S)-(2-fluoro-benzyl)-2(S)-hydroxy-7-methyl-octyl]-amide] | 213 to 215
CNC(=O)[C@H](CC(C)C)C[C@H](O)[C@H](CC(C)C)NC(=O)c1cnc2ccccc2c1 [Example 10, Quinoline-3-carboxylic acid (2(S)-hydroxy-1(S)-isobutyl-6-methyl-4(R)-methylcarbamoyl-heptyl)-amide] | 155 to 157
CNC(=O)[C@H](CC1CCCCC1)C[C@H](O)[C@H](Cc1ccc(Cl)cc1)NC(=O)c1cnc2ccccc2c1 [Example 71, Quinoline-3-carboxylic acid [1(S)-(4-chloro-benzyl)-5-cyclohexyl-2(S)-hydroxy-4(R)-methylcarbamoyl-pentyl]-amide] | 198 to 201
CNC(=O)[C@H](CCC(C)(C)F)C[C@H](O)[C@H](Cc1ccc(F)cc1)NC(=O)c1cnc2ccccc2n1 [Example 154, Quinoxaline-2-carboxylic acid [7-fluoro-1(S)-(4-fluoro-benzyl)-2(S)-hydroxy-7-methyl-4(R)-methylcarbamoyl-octyl]-amide] | 145 to 147
NC(=O)[C@@H](C[C@H](O)[C@H](Cc1ccccc1)NC(=O)c1cnc2ccccc2n1)C1CCCCC1 [Example 169, Quinoxaline-2-carboxylic acid (1(S)-benzyl-4-carbamoyl-4(S)-cyclohexyl-2(S)-hydroxy-butyl)-amide] | 178 to 180
CNC(=O)[C@H](CC1CCCCC1)C[C@H](O)[C@H](CC1CCCCC1)NC(=O)c1cncc2ccccc12 [Example 62, Isoquinoline-4-carboxylic acid (5-cyclohexyl-1(S)-cyclohexylmethyl-2(S)-hydroxy-4(R)-methylcarbamoyl-pentyl)-amide] | 220.5 to 224
